Values of other authors in US20250223207A1, “COMPOSITIONS OF SUPPORTED METAL CATALYSTS AND METHODS THEREOF” (THE TEXAS A&M UNIVERSITY SYSTEM, priority 2024, published 2025).

Assays:
[1] = PFAS compounds, Table 7
[2] = human bodies, oral

| Fraction of orally taken dose metabolized [2] [%] | SMILES | pKa [1] |
| --- | --- | --- |
| – | O=S(=O)(O)C(F)(F)C(F)(F)C(F)(F)C(F)(F)C(F)(F)C(F)(F)F [PFHxS, perfluorohexanesulfonic acid] | −3.32 |
| – | O=C(O)C(F)(F)C(F)(F)C(F)(F)C(F)(F)C(F)(F)C(F)(F)C(F)(F)F [PFOA, perfluorooctanoic acid] | 1.30 |
| – | O=S(=O)(O)C(F)(F)C(F)(F)C(F)(F)C(F)(F)C(F)(F)C(F)(F)C(F)(F)C(F)(F)F [PFOS, perfluoro octane sulfonic acid] | =<1.0 |
| – | O=C(O)C(F)(F)C(F)(F)C(F)(F)C(F)(F)C(F)(F)C(F)(F)C(F)(F)C(F)(F)F [PFNA, perfluorononanoic acid] | −0.21 |
| – | O=S(=O)(O)C(F)(F)C(F)(F)C(F)(F)C(F)(F)F [PFBS, perfluorobutane sulfonic acid] | −3.31 |
| – | O=C(O)C(F)(OC(F)(F)C(F)(F)C(F)(F)F)C(F)(F)F (stereo not shown) [HFPO-DA, hexafluoropropylene oxide dimer acid] | 2.84 |
| 22.5 | COc1cc(Cc2cnc(N)nc2N)cc(OC)c1OC [TMP, Trimethoprim] | – |
